Like-named read-outs stand apart in the source and are kept apart here.
Key:
[1] = log P by HPLC on reversed-phase column (C 18), EEC Directive 79/831 Annex V.A8; type: physicochemical; settings: Table 1, HPLC C 18, 40° C., 0.1% aqueous formic acid and acetonitrile, gradient 10% to 90% acetonitrile, two values = mixture of endo and exo isomers
Description: In table 1, the log P values were determined in accordance with EEC Directive 79/831 Annex V.A8 by HPLC (High Performance Liquid Chromatography) on a reversed-phase column (C 18), using the method described below:
Temperature: 40° C.; Mobile phases: 0.1% aqueous formic acid and acetonitrile; linear gradient from 10% acetonitrile to 90% acetonitrile.
Calibration was carried out using unbranched alkan-2-ones (comprising 3 to 16 carbon atoms) with known log P values (determination of the log P values by the retention times using linear interpolation between two successive alkanones). lambda-max-values were determined using UV-spectra from 200 nm to 400 nm and the peak values of the chromatographic signals.

Alternaria brassicae = test: In vivo preventive test on Alternaria brassicae (leaf spot on radish); settings: 500 ppm of active ingredient, spray 24 hours before inoculation, evaluated 6 days after inoculation
Description: (§1) Solvent: 5% by volume of Dimethyl sulfoxide
(§2) • 10% by volume of Acetone Emulsifier: 1 μl of Tween® 80 per mg of active ingredient
(§3) The active ingredients are made soluble and homogenized in a mixture of Dimethyl sulfoxide/Acetone/Tween® 80 and then diluted in water to the desired concentration.
The young plants of radish are treated by spraying the active ingredient prepared as described above. Control plants are treated only with an aqueous solution of Acetone/Dimethyl sulfoxide/Tween® 80.
After 24 hours, the plants are contaminated by spraying the leaves with an aqueous suspension of Alternaria brassicae spores. The contaminated radish plants are incubated for 6 days at 20° C. and at 100% relative humidity.
The test is evaluated 6 days after the inoculation. 0% means an efficacy which corresponds to that of the control plants while an efficacy of 100% means that no disease is observed.

Pyrenophora teres = test: In vivo preventive test on Pyrenophora teres (barley); settings: 500 ppm of active ingredient, evaluated 14 days after inoculation
Description: as §1, §2, §3
The young plants of barley are treated by spraying the active ingredient prepared as described above. Control plants are treated only with an aqueous solution of Acetone/Dimethyl sulfoxide/Tween® 80.
After 24 hours, the plants are contaminated by spraying the leaves with an aqueous suspension of Pyrenophora teres spores. The contaminated barley plants are incubated for 48 hours at 20° C. and at 100% relative humidity and then for 12 days at 20° C. and at 70-80% relative humidity.
The test is evaluated 14 days after the inoculation. 0% means an efficacy which corresponds to that of the control plants while an efficacy of 100% means that no disease is observed.

Puccinia recondita = test: In vivo preventive test on Puccinia recondita (brown rust on wheat); settings: 500 ppm of active ingredient, evaluated 11 days after inoculation
Description: as §1, §2, §3
(§4) The young plants of wheat are treated by spraying the active ingredient prepared as described above. Control plants are treated only with an aqueous solution of Acetone/Dimethyl sulfoxide/Tween® 80.
After 24 hours, the plants are contaminated by spraying the leaves with an aqueous suspension of Puccinia recondita spores. The contaminated wheat plants are incubated for 24 hours at 20° C. and at 100% relative humidity and then for 10 days at 20° C. and at 70-80% relative humidity.
(§5) The test is evaluated 11 days after the inoculation. 0% means an efficacy which corresponds to that of the control plants while an efficacy of 100% means that no disease is observed.

Septoria tritici = test: In vivo preventive test on Septoria tritici (wheat); settings: 500 ppm of active ingredient, evaluated 24 days after inoculation
Description: as §1, §2, §3, §4
After 24 hours, the plants are contaminated by spraying the leaves with an aqueous suspension of Septoria tritici spores. The contaminated wheat plants are incubated for 72 hours at 18° C. and at 100% relative humidity and then for 21 days at 20° C. and at 90% relative humidity.
The test is evaluated 24 days after the inoculation. 0% means an efficacy which corresponds to that of the control plants while an efficacy of 100% means that no disease is observed.

Sphaerotheca fuliginea = test: In vivo preventive test on Sphaerotheca fuliginea (powdery mildew on cucurbits); settings: 500 ppm of active ingredient; gherkin; evaluated 15 days after inoculation
Description: as §1, §2, §3
The young plants of gherkin are treated by spraying the active ingredient prepared as described above. Control plants are treated only with an aqueous solution of Acetone/Dimethyl sulfoxide/Tween® 80.
After 24 hours, the plants are contaminated by spraying the leaves with an aqueous suspension of Sphaerotheca fuliginea spores. The contaminated gherkin plants are incubated for 72 hours at 18° C. and at 100% relative humidity and then for 12 days at 20° C. and at 70-80% relative humidity.
The test is evaluated 15 days after the inoculation. 0% means an efficacy which corresponds to that of the control plants while an efficacy of 100% means that no disease is observed.

Uromyces appendiculatus = test: In vivo preventive test on Uromyces appendiculatus (bean rust); settings: Uromyces appendiculatus, 264 h
Description: as §1, §2, §3
The young plants of bean are treated by spraying the active ingredient prepared as described above. Control plants are treated only with an aqueous solution of Acetone/Dimethyl sulfoxide/Tween® 80.
After 24 hours, the plants are contaminated by spraying the leaves with an aqueous suspension of Uromyces appendiculatus spores. The contaminated bean plants are incubated for 24 hours at 20° C. and at 100% relative humidity and then for 10 days at 20° C. and at 70-80% relative humidity.
as §5

Row | logP [1] | Structure (SMILES) | Efficacy (Alternaria brassicae) [%] | Efficacy (Pyrenophora teres) [%] | Efficacy (Puccinia recondita) [%] | Efficacy (Septoria tritici) [%] | Efficacy (Sphaerotheca fuliginea) [%] | chromatographic logP ([1]; reversed-phase HPLC column (C 18)) | pest or weed control at 500 ppm (Uromyces appendiculatus; read-out: Efficacy, 500 ppm of active ingredient, evaluated 11 days after inoculation) [%] | pest or weed control at 500 ppm (Uromyces appendiculatus; read-out: Efficacy, 500 ppm, evaluated 11 days after inoculation, Table F2 comparison) [%] | pest or weed control at 500 ppm (Uromyces appendiculatus; read-out: Efficacy, 500 ppm, evaluated 11 days after inoculation, Table F3 comparison) [%]
1 | 5.17 | Cn1nc(C(F)F)c(C(=O)N(Cc2ccccc2C23CCCCCC2C3(Cl)Cl)C2CC2)c1F (stereo not shown) [I.13] | 75 | 75 | 81 | 88 | 100 |  |  |  | 
2 | 6.46 | CC(C)c1ccc(C2=CC3CCC2(C)C3(C)C)cc1CN(C(=O)c1c(C(F)F)nn(C)c1F)C1CC1 (stereo not shown) [I.16] | 79 | 94 | 94 | 100 | 100 |  |  |  | 

Row | Structure (SMILES) | logP [1] | Efficacy (Alternaria brassicae) [%] | Efficacy (Pyrenophora teres) [%] | Efficacy (Puccinia recondita) [%] | Efficacy (Septoria tritici) [%] | Efficacy (Sphaerotheca fuliginea) [%] | chromatographic logP ([1]; reversed-phase HPLC column (C 18)) | pest or weed control at 500 ppm (Uromyces appendiculatus; read-out: Efficacy, 500 ppm of active ingredient, evaluated 11 days after inoculation) [%] | pest or weed control at 500 ppm (Uromyces appendiculatus; read-out: Efficacy, 500 ppm, evaluated 11 days after inoculation, Table F2 comparison) [%] | pest or weed control at 500 ppm (Uromyces appendiculatus; read-out: Efficacy, 500 ppm, evaluated 11 days after inoculation, Table F3 comparison) [%]
3 | CC(c1ccccc1C1CC2CCC1C2)N(C(=O)c1c(C(F)F)nn(C)c1F)C1CC1 (stereo not shown) [I.15, N-{1-[2-(bicyclo[2.2.1]hept-2-yl)phenyl]ethyl}-N-cyclopropyl-3-(difluoromethyl)-5-fluoro-1-methyl-1H-pyrazole-4-carboxamide] | 4.98 | 97 | 100 | 88 | 100 | 100 | 4.91 | 88 | ≥ 80 | ≥ 80

Source: US9770022B2, “N-cycloalkyl-N-[(bicyclylphenyl)methylene]-(thio)carboxamide derivatives” (BAYER CROPSCIENCE AG, priority 2013, dated 2017)
